Key:
Phytophthora infestans = experiment: whole plant or invertebrate; type: in vivo; conditions: Phytophthora infestans, in Solanum lycopersicum, foliar, read-out: Percent Disease Control, foliar, tomato late blight, 150 ppm, protective
Alternaria solani = experiment: Mycelial growth test; type: cell-based; conditions: Alternaria solani, 72 h, AS, read-out: Percent Fungus Growth Inhibition
Uromyces phaseoli = experiment: whole plant or invertebrate; conditions: foliar, 24 h, read-out: Percent Disease Control, curative, bean rust

## CC(=O)Nc1cccc(Oc2nsnc(Cl)c2=O)c1 [Compound 42, 3-[(3-N--acetylamino)-phenoxy]-5-chloro-4H--1,2,6-thiadiazin-4-one]
Phytophthora infestans
  pest or weed control at 150 ppm: 0%
Alternaria solani
  inhibition at 5 ppm: 24%
  inhibition at 10 ppm: 33%
  inhibition at 20 ppm: 52%
  inhibition at 40 ppm: 90%
Uromyces phaseoli
  pest or weed control at 150 ppm: 0%

## CC(=O)Nc1ccccc1Oc1nsnc(Cl)c1=O [Compound 43, 3-[(2-acetylamino)-phenoxy]-5-chloro-4H--1,2,6-thiadiazin-4-one]
Phytophthora infestans
  pest or weed control at 150 ppm: 0%
Alternaria solani
  inhibition at 5 ppm: 80%
  inhibition at 10 ppm: 100%
  inhibition at 20 ppm: 100%
  inhibition at 40 ppm: 100%
Uromyces phaseoli
  pest or weed control at 150 ppm: 0%

## O=c1c(Cl)nsnc1Oc1cccc(C(F)(F)F)c1 [Compound 44, 3-chloro-5-[(3-trifluoromethyl)phenoxy]-4H--1,2,6-thiadiazin-4-one]
Phytophthora infestans
  pest or weed control at 150 ppm: 0%
Alternaria solani
  inhibition at 5 ppm: 52%
  inhibition at 10 ppm: 62%
  inhibition at 20 ppm: 100%
  inhibition at 40 ppm: 100%
Uromyces phaseoli
  pest or weed control at 150 ppm: 0%

## O=C(O)Cc1ccccc1Oc1nsnc(Cl)c1=O [Compound 45, 3-(2-carboxymethylphenoxy)-5-chloro-4H--1,2,6-thiadiazin-4-one]
Phytophthora infestans
  pest or weed control at 150 ppm: 0%
Alternaria solani
  inhibition at 5 ppm: 4%
  inhibition at 10 ppm: 0%
  inhibition at 20 ppm: 25%
  inhibition at 40 ppm: 54%
Uromyces phaseoli
  pest or weed control at 150 ppm: 0%

## N#CCc1ccc(Oc2nsnc(Cl)c2=O)cc1 [Compound 46, 3-chloro-5-[(4-cyanomethyl)-phenoxy]4H--1,2,6-thiadiazin-4-one]
Phytophthora infestans
  pest or weed control at 150 ppm: 75%
Alternaria solani
  inhibition at 5 ppm: 71%
  inhibition at 10 ppm: 81%
  inhibition at 20 ppm: 100%
  inhibition at 40 ppm: 100%
Uromyces phaseoli
  pest or weed control at 150 ppm: 0%

## CC(=O)c1ccc(Oc2nsnc(Cl)c2=O)cc1 [Compound 47, 3-(4-acetylphenoxy)-5-chloro-4H--1,2,6-thiadiazin-4-one]
Phytophthora infestans
  pest or weed control at 150 ppm: 95%
Alternaria solani
  inhibition at 5 ppm: 92%
  inhibition at 10 ppm: 92%
  inhibition at 20 ppm: 92%
  inhibition at 40 ppm: 88%
Uromyces phaseoli
  pest or weed control at 150 ppm: 0%

## CC(=O)c1cccc(Oc2nsnc(Cl)c2=O)c1 [Compound 48, 3-(3-acetylphenoxy)-5-chloro-4H--1,2,6-thiadiazin-4-one]
Phytophthora infestans
  pest or weed control at 150 ppm: 98%
Alternaria solani
  inhibition at 5 ppm: 88%
  inhibition at 10 ppm: 92%
  inhibition at 20 ppm: 100%
  inhibition at 40 ppm: 100%
Uromyces phaseoli
  pest or weed control at 150 ppm: 0%

## CC(=O)c1ccccc1Oc1nsnc(Cl)c1=O [Compound 49, 3-(2-acetylphenoxy)-5-chloro-4H--1,2,6-thiadiazin-4-one]
Phytophthora infestans
  pest or weed control at 150 ppm: 90%
Alternaria solani
  inhibition at 5 ppm: 100%
  inhibition at 10 ppm: 100%
  inhibition at 20 ppm: 100%
  inhibition at 40 ppm: 100%
Uromyces phaseoli
  pest or weed control at 150 ppm: 0%

## O=C(O)c1ccc(Oc2nsnc(Cl)c2=O)cc1 [Compound 50, 3-(4-carboxyphenoxy)-5-chloro-4H--1,2,6-thiadiazin-4-one]
Phytophthora infestans
  pest or weed control at 150 ppm: 0%
Alternaria solani
  inhibition at 5 ppm: 33%
  inhibition at 10 ppm: 21%
  inhibition at 20 ppm: 54%
  inhibition at 40 ppm: 63%
Uromyces phaseoli
  pest or weed control at 150 ppm: 0%

## COc1ccc(Cl)c(Oc2nsnc(Cl)c2=O)c1 [Compound 51, 3-chloro-5-[(2-chloro-5-methoxy)phenoxy]-4H--1,2,6-thiadiazin-4-one]
Phytophthora infestans
  pest or weed control at 150 ppm: 90%
Alternaria solani
  inhibition at 5 ppm: 52%
  inhibition at 10 ppm: 75%
  inhibition at 20 ppm: 81%
  inhibition at 40 ppm: 90%
Uromyces phaseoli
  pest or weed control at 150 ppm: 0%

## COc1cc(Cl)cc(Oc2nsnc(Cl)c2=O)c1 [Compound 52, 3-chloro-5-[(3-chloro-5-methoxy)phenoxy]-4H--1,2,6-thiadiazin-4-one]
Phytophthora infestans
  pest or weed control at 150 ppm: 50%
Alternaria solani
  inhibition at 5 ppm: 52%
  inhibition at 10 ppm: 71%
  inhibition at 20 ppm: 90%
  inhibition at 40 ppm: 90%
Uromyces phaseoli
  pest or weed control at 150 ppm: 0%

## O=c1c(Cl)nsnc1Oc1ccc([N+](=O)[O-])cc1Cl [Compound 53, 3-chloro-5-(2-chloro-4-nitrophenoxy)-4H--1,2,6-thiadiazin-4-one]
Phytophthora infestans
  pest or weed control at 150 ppm: 98%
Alternaria solani
  inhibition at 5 ppm: 38%
  inhibition at 10 ppm: 42%
  inhibition at 20 ppm: 67%
  inhibition at 40 ppm: 100%
Uromyces phaseoli
  pest or weed control at 150 ppm: 0%

## Cc1cc(Oc2nsnc(Cl)c2=O)ccc1Cl [Compound 54, 3-chloro-5-(4-chloro-3-methylphenoxy)-4H--1,2,6-thiadiazin-4-one]
Phytophthora infestans
  pest or weed control at 150 ppm: 0%
Alternaria solani
  inhibition at 5 ppm: 70%
  inhibition at 10 ppm: 100%
  inhibition at 20 ppm: 100%
  inhibition at 40 ppm: 100%
Uromyces phaseoli
  pest or weed control at 150 ppm: 0%

## Cc1cc(Cl)ccc1Oc1nsnc(Cl)c1=O [Compound 55, 3-chloro-5-(4-chloro-2-methylphenoxy)-4H--1,2,6-thiadiazin-4-one]
Phytophthora infestans
  pest or weed control at 150 ppm: 90%
Alternaria solani
  inhibition at 5 ppm: 100%
  inhibition at 10 ppm: 100%
  inhibition at 20 ppm: 100%
  inhibition at 40 ppm: 100%
Uromyces phaseoli
  pest or weed control at 150 ppm: 0%

## Cc1ccc(Oc2nsnc(Cl)c2=O)c(Br)c1 [Compound 57, 3-[(2-bromo-4-methyl)-phenoxy]-5-chloro-4H--1,2,6-thiadiazin-4-one]
Phytophthora infestans
  pest or weed control at 150 ppm: 0%
Alternaria solani
  inhibition at 5 ppm: 71%
  inhibition at 10 ppm: 90%
  inhibition at 20 ppm: 90%
  inhibition at 40 ppm: 90%
Uromyces phaseoli
  pest or weed control at 150 ppm: 0%

## Cc1cc(Cl)c(Oc2nsnc(Cl)c2=O)cc1C [Compound 58, 3-chloro-5-[(2-chloro-4,5-dimethyl)phenoxy]-4H--1,2,6-thiadiazin-4-one]
Phytophthora infestans
  pest or weed control at 150 ppm: 0%
Alternaria solani
  inhibition at 5 ppm: 48%
  inhibition at 10 ppm: 48%
  inhibition at 20 ppm: 43%
  inhibition at 40 ppm: 43%
Uromyces phaseoli
  pest or weed control at 150 ppm: 0%

## Cc1cc(Oc2nsnc(Cl)c2=O)cc(C)c1Cl [Compound 59, 3-chloro-5-[(4-chloro-3,5-dimethyl)phenoxy]-4H--1,2,6-thiadiazin-4-one]
Phytophthora infestans
  pest or weed control at 150 ppm: 0%
Alternaria solani
  inhibition at 5 ppm: 48%
  inhibition at 10 ppm: 52%
  inhibition at 20 ppm: 57%
  inhibition at 40 ppm: 57%
Uromyces phaseoli
  pest or weed control at 150 ppm: 0%

## Cc1cc(Oc2nsnc(Cl)c2=O)cc(C)c1Br [Compound 60, 3-[(4-bromo-3,5-dimethyl)-phenoxy]-5-chloro-4H--1,2,6-thiadiazin-4-one]
Phytophthora infestans
  pest or weed control at 150 ppm: 0%
Alternaria solani
  inhibition at 5 ppm: 33%
  inhibition at 10 ppm: 43%
  inhibition at 20 ppm: 52%
  inhibition at 40 ppm: 52%
Uromyces phaseoli
  pest or weed control at 150 ppm: 0%

## COc1cc(Oc2nsnc(Cl)c2=O)cc(OC)c1C(C)=O [Compound 61, 3-[(4-acetyl-3,5-dimethoxy)-phenoxy]-5-chloro-4H--1,2,6-thiadiazin-4-one]
Phytophthora infestans
  pest or weed control at 150 ppm: 0%
Alternaria solani
  inhibition at 5 ppm: 33%
  inhibition at 10 ppm: 29%
  inhibition at 20 ppm: 25%
  inhibition at 40 ppm: 42%
Uromyces phaseoli
  pest or weed control at 150 ppm: 0%

From patent US4450269A, “Mono-5-substituted-3-chloro-4H-1,2,6-thiadiazin-4-one antifungal agents” (FMC Corporation, priority 1980, dated 1984)
